Values quoted from earlier work in patent US12029723B2, “Compounds and forms of treatment for female sexual disorders” (GTO PHARMA, LLC., priority 2015, dated 2024).

Key:
[1] = tested on: pre-menopausal women with SIAD related disorders
liver = conditions: a person taking 400 mg daily in herbal substitutes for weight loss

## O=c1[nH]c2ccccc2n1CCN1CCN(c2cccc(C(F)(F)F)c2)CC1 [Flibanserin, 2H-benzimidazol-2-one, 1,3-dihydro-1-[2-[4-[3(tri-fluoromethyl)phenyl]-1-piperazinyl]ethyl]]
[1]; 100 mg daily for a minimum of 28 days
  share of women with the benefit: 18%
[1]; in vivo
  effect on GPPD (vestibulodynia, dyspareunia) or FOD: no therapeutic effect at all
[1]; median baseline about 2-3 SSEs per month, six month period
  median placebo-corrected increase in satisfying sexual events (SSEs): 0.5-1.0 SSEs per month
[1]; vs 9.4% placebo
  sedation or hypotension-related adverse events: 28.6%

## Epigallocatechin-3-gallate [EGCG]
liver
  liver injury: acute but reversible liver failure
